# Test system: soil urease
# Test: Soil urease inhibition efficacy test (urea remaining after incubation in soil)
# Assay type: biochemical
# Conditions: 40 micrograms per gram soil, incubated at 25° C. for three days, run in triplicate
# Description: Efficacy tests were conducted to evaluate the efficacy of certain representative oxidized sulfur derivatives of diaminophosphinyl compounds as urease inhibitors. The inhibition tests were run in New York (Cazenovia Silt loam, pH 7.3) and Wisconsin (Plano silt loam pH 5.3) soils. Evaluations (run in triplicate) consisted of applying 800 micrograms of the test compound in 5 mL of water and 42.8 mg of urea in 1 mL of water to 20 g of air-dry soil in a glass bottle. The bottle was capped with perforated aluminum foil and incubated at 25° C. for three days prior to extraction with 100 mL of a 2M potassium chloride solution containing 0.5 mg of phenylmercuric acetate. The extracts were then analyzed for remaining urea using an autoanalyzer. Percent inhibition was calculated as [formula] where A is urea recovered from unincubated sample (urea added to soil and immediately extracted); B is urea recovered from inhibited sample; and C is urea recovered from the control (uninhibited sample).
# [1] = Cazenovia silt loam (New York) pH 7.3
# [2] = Wisconsin (Plano silt loam) pH 5.3
Structure (SMILES),% Inhibition [1] [%],% Inhibition [2] [%]
Cc1ccc(S(=O)(=O)NP(N)(N)=O)cc1 [N-(Diaminophosphinyl)-p-toluene-sulfonamide],86,51
NP(N)(=O)NS(=O)(=O)c1ccccc1 [N-(Diaminophosphinyl)benzenesulfonamide],91,23
